Laboratory results: patent publication US5852007A, “Cysteine and serine protease inhibitors containing D-amino acid at the P2 position, methods of making same, and methods of using same” (priority 1997, dated 1998)
Like-named read-outs stand apart in the source and are kept apart here. Square brackets hold non-standard residues; d marks the D form. Peptide text beside a SMILES is read from it. * marks the point of attachment. ξ: configuration not given here. d(αMeF) = C[C@@](N)(Cc1ccccc1)C(=O)O; 2Pal = N[C@@H](Cc1ccccn1)C(=O)O; 2Thi = N[C@@H](Cc1cccs1)C(=O)O; ξF = NC(Cc1ccccc1)C(=O)O; Cbz = O=C(OCc1ccccc1)*; Bn = c1ccc(C*)cc1; Ms = CS(=O)(=O)*

Legend:
Type in all cases: biochemical
cathepsin L = target: T1, cathepsin L (Homo sapiens, UniProt P07711); experiment: Inhibition of cathepsin L; details: for inhibition at 1 µM: read-out: Cat L % I @ 1 uM
T1 construct: purchased Calbiochem 219402
Method: (§1) Additionally,the order of reagents added to the plate was altered because both enzymes are constitutively active. Following inhibitor addition to the plates, appropriate 2× concentrated stock dilutions of the enzyme preparations were made in assay buffer and 100 μl added to each well. The assay was initiated by addition of 100 μl of 2× concentrated stock dilution of substrate in assay buffer.

[1] = target: T2, Recombinant human calpain I (Homo sapiens, UniProt P07384); experiment: Inhibition of calpain I activity
T2 construct: made in house
T2 sequence (P07384 1-714): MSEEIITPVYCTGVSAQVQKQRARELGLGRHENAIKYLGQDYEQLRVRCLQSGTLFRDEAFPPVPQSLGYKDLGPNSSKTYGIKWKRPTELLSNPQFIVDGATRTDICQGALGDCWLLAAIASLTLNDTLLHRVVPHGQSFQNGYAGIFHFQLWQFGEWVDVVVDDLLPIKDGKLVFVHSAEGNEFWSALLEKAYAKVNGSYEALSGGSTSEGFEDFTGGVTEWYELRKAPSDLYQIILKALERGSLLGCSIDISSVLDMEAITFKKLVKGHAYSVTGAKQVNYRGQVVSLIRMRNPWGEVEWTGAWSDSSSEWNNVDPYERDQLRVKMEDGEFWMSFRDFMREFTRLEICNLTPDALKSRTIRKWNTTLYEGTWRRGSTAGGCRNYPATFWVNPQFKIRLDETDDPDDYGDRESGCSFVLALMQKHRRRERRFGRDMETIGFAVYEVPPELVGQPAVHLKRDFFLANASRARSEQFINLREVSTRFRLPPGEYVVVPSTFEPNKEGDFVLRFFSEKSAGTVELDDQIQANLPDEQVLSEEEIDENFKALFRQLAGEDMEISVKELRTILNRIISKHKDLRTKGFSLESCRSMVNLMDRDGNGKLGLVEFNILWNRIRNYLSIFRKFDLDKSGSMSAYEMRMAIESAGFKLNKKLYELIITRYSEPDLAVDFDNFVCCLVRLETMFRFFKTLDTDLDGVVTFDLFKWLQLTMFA

cathepsin B = target: T3, cathepsin B (Homo sapiens, UniProt P07858); experiment: Inhibition of cathepsin B; details: for inhibition at 1 µM: read-out: Cat B % I @ 1 uM; for IC50: read-out: Cat B IC50
T3 construct: purchased Calbiochem 219364
Method: as §1

α-chymotrypsin = target: T4, α-chymotrypsin (Bos taurus, UniProt P00766); experiment: Inhibition of α-chymotrypsin; details: for inhibition at 10 µM: read-out: Chymotrypsin % I @ 10 uM
T4 construct: purchased Sigma Chem. Co. C-3142
Summary of the method: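 Enzyme added to inhibitor first, then reaction started with substrate; no calcium activation needed as enzyme is constitutively active. Fluorogenic substrate hydrolysis read every 5 min up to 30 min ([…]).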

thrombin = target: T5, thrombin (Homo sapiens, UniProt P00734); experiment: Inhibition of thrombin; details: for inhibition at 10 µM: read-out: Thrombin % I @ 10 uM
T5 construct: purchased Sigma Chem. Co. T-7009

T1 sequence (P07711 114-288 limits assumed): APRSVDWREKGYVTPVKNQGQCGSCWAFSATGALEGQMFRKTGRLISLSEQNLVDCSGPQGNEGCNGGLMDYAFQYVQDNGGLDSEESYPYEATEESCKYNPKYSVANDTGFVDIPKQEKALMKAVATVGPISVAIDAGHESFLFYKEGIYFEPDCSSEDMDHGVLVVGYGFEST
T1 sequence (P07711 292-333 limits assumed): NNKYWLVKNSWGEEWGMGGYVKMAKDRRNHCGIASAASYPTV

Row | Compound | inhibition at 1 µM (cathepsin L; Table III, 1 uM) [%] | IC50 ([1]; Table III) [nM] | inhibition at 0.1 µM ([1]; Table III, 0.1 uM) [%] | inhibition at 1 µM (cathepsin B; Table III, 1 uM) [%] | inhibition at 10 µM (α-chymotrypsin; Table III, 10 uM) [%] | inhibition at 10 µM (thrombin; Table III, 10 uM) [%] | other results
1 | O=C[C@H](Cc1ccccc1)NC(=O)[C@@H](Cc1ccccc1)NS(=O)(=O)c1cccs1 [Compound 75] | 99 | 20 | 91 | 100 | 2 | 10 | 
2 | CC(C)C[C@@H](NC(=O)OCc1ccccc1)C(=O)N[C@H](C=O)Cc1ccccc1 [Compound 85] (Cbz-[dL]-Phe-aldehyde) |  | 110 | 44 |  |  |  | inhibition at 1 µM (cathepsin L): 89%; inhibition at 1 µM (cathepsin B): 44%; inhibition at 10 µM (α-chymotrypsin): 6%; inhibition at 10 µM (thrombin): 0%
3 | CS(=O)(=O)N[C@@H](C(=O)N[C@H](C=O)Cc1ccccc1)c1cccs1 [Compound 98] | 100 | 8 | 96 | 98 | 49 | 16 | IC50 (cathepsin B; Table III): 16 nM
4 | CC(C)(C)OC(=O)NCCCC[C@@H](C=O)NC(=O)[C@@H](COCc1ccccc1)NS(C)(=O)=O [Compound 93] | 100 | 9 | 95 | 99 | 0 | 0 | 
5 | CS(=O)(=O)N[C@H](COCc1ccccc1)C(=O)N[C@@H](C=O)Cc1ccccc1 [Compound 84] | 93 |  | 2 | 22 | 0 | 0 | 
6 | Cc1ccc(S(=O)(=O)O[C@@H]2C[C@H](C(=O)N[C@H](C=O)Cc3ccccc3)N(S(=O)(=O)c3ccc(C)cc3)C2)cc1 [Compound 121] | 17 |  | 28 | 83 | 18 | 3 | 
7 | O=C[C@H](Cc1ccccc1)NC(=O)[C@@H](COCc1ccccc1)NS(=O)(=O)c1ccccc1 [Compound 48] | 100 | 31 | 87 | 99 | 0 | 3 | IC50 (cathepsin B; Table III): 11 nM
8 | CS(=O)(=O)N[C@H](COCc1ccccc1)C(=O)N[C@H](C=NNC(N)=O)Cc1ccccc1 [Compound 115] | 94 |  | 0 | 47 | 0 | 0 | 
9 | CS(=O)(=O)N[C@H](Cc1ccccc1)C(=O)N[C@H](C=O)Cc1ccccc1 [Compound 70] (Ms-[dF]-Phe-aldehyde) | 100 | 16 | 85 | 90 | 12 | 0 | 
10 | CCS(=O)(=O)N[C@H](COCc1ccccc1)C(=O)N[C@H](C=O)Cc1ccccc1 [Compound 50] | 98 | 12 | 95 | 99 |  | 9 | inhibition at 10 µM (α-chymotrypsin): 15%
11 | CS(=O)(=O)N[C@H](CC(=O)N1CCc2ccccc2C1)C(=O)N[C@H](C=O)Cc1ccccc1 [Compound 14, 2-THIQ-C(=O)CH2 CH(NHS(=O)2 CH3)C(=O)-Phe--H] |  |  |  |  |  |  | IC50 (cathepsin L; Table II, read-out: Cat L IC50): 56 nM; IC50 ([1]; Table II): 20 nM; IC50 (cathepsin B; Table II): 145 nM; inhibition at 10 µM (α-chymotrypsin; Table II, 10 uM): 11%; inhibition at 10 µM (thrombin; Table II, 10 uM): 0%
12 | Cc1ccc(S(=O)(=O)N[C@H](COCc2ccccc2)C(=O)N[C@H](C=O)Cc2ccccc2)cc1 [Compound 49] | 100 | 27 | 75 | 99 | 1 | 4 | 
13 | CS(=O)(=O)N[C@H](COCc1ccccc1)C(=O)N[C@@H](Cc1ccccc1)C(=O)CCc1ccccc1 [Compound 125] | 39 |  | 0 | 47 | 0 | 4 | 
14 | CS(=O)(=O)N[C@H](CSCc1ccccc1)C(=O)N[C@H](C=O)Cc1ccccc1 [Compound 106] (Ms-[dC](Bn)-Phe-aldehyde) | 100 | 8 | 95 | 92 | 16 | 7 | 
15 | CS(=O)(=O)N[C@H](COCc1ccccc1)C(=O)N[C@@H](Cc1ccccc1)C(O)OCc1ccccc1 (stereo partly drawn) [Compound 135] | 100 | 11 | 91 | 98 | 4 | 0 | 
16 | CS(=O)(=O)NC(CCSCc1ccccc1)C(=O)N[C@H](C=O)Cc1ccccc1 (single isomer, unassigned) [Compound 108] |  | 25 |  |  |  |  | Cat L % I @ 1 uM (cathepsin L; Table III, 1 uM): 100%; Calpain % I @ 0.1 uM ([1]; Table III, 0.1 uM): 83%; Cat B % I @ 1 uM (cathepsin B; Table III, 1 uM): 96%; Chymotrypsin % I @ 10 uM (α-chymotrypsin; Table III, 10 uM): 0%; Thrombin % I @ 10 uM (thrombin; Table III, 10 uM): 0%
17 | CS(=O)(=O)N[C@@H](Cc1cccs1)C(=O)N[C@H](C=O)Cc1ccccc1 [Compound 99] (Ms-[2Thi]-Phe-aldehyde) | 100 | 62 | 66 | 96 | 13 | 0 | 
18 | CS(=O)(=O)N[C@H](COCc1ccccc1)C(=O)N[C@@H](Cc1ccccc1)C(O)CCc1ccccc1 (stereo partly drawn) [Compound 124] | 17 |  | 20 | 27 | 0 | 2 | 
19 | CS(=O)(=O)N[C@H](COCc1ccccc1)C(=O)N[C@H](C=O)Cc1ccccn1 [Compound 109] (Ms-[dS](Bn)-[2Pal]-aldehyde) | 98 | 40 | 59 | 70 | 0 | 0 | 
20 | CS(=O)(=O)N[C@H](COCc1ccccc1)C(=O)N[C@H]1CCCCNC1=O [Compound 126] | 16 |  | 5 | 2 | 6 | 0 | 
21 | C[C@](Cc1ccccc1)(NS(C)(=O)=O)C(=O)NC(C=O)Cc1ccccc1 (stereo partly drawn) [Compound 105] (Ms-[d(αMeF)]-[ξF]-aldehyde) | 71 |  | 9 | 45 | 10 | 0 | 
